Laboratory results from patent US9126999B2, “Tetrahydropyrazolopyrimidine compounds” (EISAI R&D MANAGEMENT CO., LTD., priority 2012, dated 2015).

Key:
[1] = molecular target: T1, Human TLR7 (Homo sapiens, UniProt Q9NYK1); assay: HEK-293 NF-kappaB luciferase reporter assay, CL097 stimulus; type: cell-based; settings: ligand CL097, analyte NFkB-luciferase
T1 construct: engineered to stably and individually express human TLR4, TLR7 or TLR9 full-length ORF cDNAs; host or cells: HEK-293 (ATCC) with ELAM-1 NF-kappaB luciferase reporter
T1 sequence (Q9NYK1 27-1049): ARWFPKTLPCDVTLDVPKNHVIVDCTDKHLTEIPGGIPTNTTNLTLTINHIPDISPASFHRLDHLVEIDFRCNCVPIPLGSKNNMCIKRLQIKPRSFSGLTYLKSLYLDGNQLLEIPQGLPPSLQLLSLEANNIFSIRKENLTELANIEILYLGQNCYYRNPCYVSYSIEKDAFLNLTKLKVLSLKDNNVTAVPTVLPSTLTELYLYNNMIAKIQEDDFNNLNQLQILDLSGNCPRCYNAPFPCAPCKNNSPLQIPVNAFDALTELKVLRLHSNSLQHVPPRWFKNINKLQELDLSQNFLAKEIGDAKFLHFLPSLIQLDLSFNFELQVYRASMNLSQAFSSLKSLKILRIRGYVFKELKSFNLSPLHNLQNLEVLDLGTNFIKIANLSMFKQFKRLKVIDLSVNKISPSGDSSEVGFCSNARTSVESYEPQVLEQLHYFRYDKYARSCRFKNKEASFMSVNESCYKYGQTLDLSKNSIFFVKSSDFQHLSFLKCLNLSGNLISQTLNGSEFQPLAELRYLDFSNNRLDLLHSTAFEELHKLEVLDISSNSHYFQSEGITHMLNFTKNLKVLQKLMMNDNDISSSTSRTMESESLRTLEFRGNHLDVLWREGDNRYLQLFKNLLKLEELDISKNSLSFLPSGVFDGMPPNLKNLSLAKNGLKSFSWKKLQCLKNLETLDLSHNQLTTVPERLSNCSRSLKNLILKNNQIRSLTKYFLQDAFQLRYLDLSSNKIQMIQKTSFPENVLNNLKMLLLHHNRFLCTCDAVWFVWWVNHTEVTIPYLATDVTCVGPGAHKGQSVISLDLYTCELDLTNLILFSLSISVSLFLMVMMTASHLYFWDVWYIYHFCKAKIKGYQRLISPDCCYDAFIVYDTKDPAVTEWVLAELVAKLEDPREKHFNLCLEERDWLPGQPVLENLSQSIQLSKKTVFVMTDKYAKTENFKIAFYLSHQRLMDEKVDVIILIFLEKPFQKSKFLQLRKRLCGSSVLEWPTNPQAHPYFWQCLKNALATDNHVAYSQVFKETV
Source text: (§1) In vitro pharmacology: HEK-293 cells (ATCC) were engineered to stably express a NF-kappaB transcription factor inducible E-selectin (ELAM-1) luciferase reporter derived from the plasmid pGL3 (Promega) containing base pairs −2241 bp to −254 bp from the promoter of the human E-selectin gene (Accession No. NM_000450). These cells were then subsequently engineered to stably and individually express human TLR4, TLR7 or TLR9 full-length ORF cDNAs. Human TLR4 cDNA (Accession No. NM_138554) was cloned into pcDNA 3.0 expression vector (Invitrogen). TLR4 transfected cells were also engineered to express human MD-2 co-receptor [MD-2 cDNA (Accession No. NM_015364) was cloned into the pEF-BOS vector] and were supplemented with 10 nM soluble CD14 (R&D Systems) in the media to optimize LPS responsiveness. Human TLR9 cDNA (Accession No. NM_017442) was cloned into the pBluescript II KS vector (Agilent). Human TLR7 cDNA (Accession No. NM_016562) was obtained from OriGene. HEK-293 cells stably expressing human TLR8 (Accession No. NM_138636) or mouse TLR7 (Accession No. NM_133211) were purchased from InvivoGen and were then stably transfected with pNiFty2(NF-kappaB)-luciferase reporter plasmid (InvivoGen). Each cell type was plated in Dulbecco's modified Eagle's medium (DMEM) containing 10% fetal bovine serum (FBS) at a density of 2.22×10^5 cells/ml into a 384-well plate and incubated for 2 days at 37° C., 5% CO2. Varying concentrations of antagonist compounds were then added. Cells were then incubated for another 30 minutes before adding the appropriate TLR agonist as follows (final concentrations indicated): lipopolysaccharide (LPS; Sigma) at 10 ng/ml for TLR4, CL097 (InvivoGen) at 3 ug/ml for human TLR7 and TLR8 and mouse TLR7, and CpG-2006-2A [sequence: […] (SEQ ID NO: 1) with phosphorothioate backbone, synthesized by Sigma-Aldrich] at 0.6 uM for TLR9.

[2] = molecular target: T2, Mouse TLR7 (Mus musculus, UniProt P58681); assay: as above; type: cell-based; settings: ligand CL097, analyte NFkB-luciferase
T2 construct: endogenous in cells; host or cells: female BALB/c mice, in vivo
T2 sequence (P58681 27-1050): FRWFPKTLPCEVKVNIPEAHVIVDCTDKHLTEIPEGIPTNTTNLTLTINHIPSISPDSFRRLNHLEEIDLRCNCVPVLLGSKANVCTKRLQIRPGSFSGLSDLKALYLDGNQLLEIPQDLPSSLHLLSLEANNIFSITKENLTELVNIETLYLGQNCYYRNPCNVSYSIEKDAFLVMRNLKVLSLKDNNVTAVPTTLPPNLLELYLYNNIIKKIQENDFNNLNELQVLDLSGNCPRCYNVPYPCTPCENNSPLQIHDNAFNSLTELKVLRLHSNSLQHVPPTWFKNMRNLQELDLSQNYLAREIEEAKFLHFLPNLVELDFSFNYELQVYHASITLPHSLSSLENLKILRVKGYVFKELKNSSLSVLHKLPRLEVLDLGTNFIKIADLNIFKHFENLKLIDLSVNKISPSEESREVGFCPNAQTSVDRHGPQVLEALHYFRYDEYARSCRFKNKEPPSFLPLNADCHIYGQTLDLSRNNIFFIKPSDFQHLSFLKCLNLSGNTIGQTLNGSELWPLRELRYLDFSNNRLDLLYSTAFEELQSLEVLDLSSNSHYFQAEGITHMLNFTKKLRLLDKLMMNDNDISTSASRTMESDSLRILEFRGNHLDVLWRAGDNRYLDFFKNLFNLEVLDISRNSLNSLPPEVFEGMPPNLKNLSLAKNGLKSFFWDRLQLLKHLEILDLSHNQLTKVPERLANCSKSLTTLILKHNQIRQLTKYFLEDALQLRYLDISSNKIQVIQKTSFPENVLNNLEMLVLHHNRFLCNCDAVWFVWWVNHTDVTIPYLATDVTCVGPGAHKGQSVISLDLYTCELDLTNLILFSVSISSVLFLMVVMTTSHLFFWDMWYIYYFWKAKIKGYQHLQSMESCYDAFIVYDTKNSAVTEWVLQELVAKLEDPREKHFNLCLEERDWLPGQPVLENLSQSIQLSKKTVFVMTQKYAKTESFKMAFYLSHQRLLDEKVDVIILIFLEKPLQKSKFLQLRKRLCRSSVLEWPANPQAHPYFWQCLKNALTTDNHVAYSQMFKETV
Source text: as §1

## COc1ccc([C@@H]2C[C@H](C(F)(F)F)n3nc(-c4ccc(C(=O)N5CCNCC5)cc4)cc3N2)cc1OC [ER-892887, (4-((5S,7R)-5-(3,4-dimethoxyphenyl)-7-(trifluoromethyl)-4,5,6,7-tetrahydropyrazolo[1,5-a]pyrimidin-2-yl)phenyl)(piperazin-1-yl)methanone]
[1]
  IC50: 10 nM
[2]
  IC50: 276 nM
